The structures appear in SMILES notation. Some results are limits rather than exact numbers.

Assay [1] addresses T1, GK-GKRP (glucokinase / glucokinase regulatory protein) (Homo sapiens, UniProt Q14397).
T1 sequence (Q14397 1-625): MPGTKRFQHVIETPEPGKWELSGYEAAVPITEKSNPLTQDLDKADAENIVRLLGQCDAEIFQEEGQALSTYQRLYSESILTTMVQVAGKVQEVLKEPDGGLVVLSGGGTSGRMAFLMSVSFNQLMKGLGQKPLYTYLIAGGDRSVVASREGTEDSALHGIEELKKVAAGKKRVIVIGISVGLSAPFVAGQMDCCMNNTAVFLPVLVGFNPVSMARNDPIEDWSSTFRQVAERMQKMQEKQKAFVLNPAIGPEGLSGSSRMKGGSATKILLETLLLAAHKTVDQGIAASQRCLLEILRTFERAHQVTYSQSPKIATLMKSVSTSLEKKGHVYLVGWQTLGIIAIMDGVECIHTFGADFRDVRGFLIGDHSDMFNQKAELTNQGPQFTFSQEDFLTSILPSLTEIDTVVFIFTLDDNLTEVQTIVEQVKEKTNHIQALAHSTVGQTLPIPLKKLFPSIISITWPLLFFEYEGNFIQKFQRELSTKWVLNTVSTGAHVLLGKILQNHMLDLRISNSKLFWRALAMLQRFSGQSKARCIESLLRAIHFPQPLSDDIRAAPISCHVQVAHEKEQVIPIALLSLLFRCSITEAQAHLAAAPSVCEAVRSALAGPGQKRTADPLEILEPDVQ
The assay can be described thus: GKRP LC MS/MS Biochemical Assay (LCMS/MS). The note with it: formation of 13C-glucose-6-phosphate from 13C-glucose by LC MS/MS, human His-hepatic GK, fructose-6-phosphate. On the procedure:
GKRP LC MS/MS Biochemical Assay (LCMS/MS)
This assay is used to directly measure the formation of ^13C-glucose-6-phosphate from ^13C-glucose by LC MS/MS. Begin by preparing the following solutions: Compound Buffer (CB): 50 mM Tris, pH 7.5/4 mM MgCl2/6% DMSO/fresh 10 mM DTT from 1M frozen stock. Enzyme Buffer (EB): 50 mM Tris, pH 7.5/4 mM MgCl2/6% DMSO/fresh 0.1% BSA/fresh 0.01% Brij-35 (10% BSA and 1% Brij-35 stock). GK (Glucokinase) Working Stock (5×): Dilute human His-hepatic GK to 30 nM in EB buffer. […] Seal the plate and incubate for 30 minutes at room temperature while mixing. After 30 minutes add 10 μl of GK Working Stock (5×). Re-seal the plate and incubate for another 30 minutes at room temperature while mixing. After the second 30 minutes, stop the reaction by the addition of 50 μl of 100% acetonitrile, seal, and mix for 5-10 minutes. Run 10 μl of this sample through the LC MS/MS (API 3200, Applied Biosystems, Carlsbad, Calif.). […]
(§1) In the Examples, the assays are referred to as “LCMS/MS” or “Binding.”

In assay [2] the target is T2, GK-GKRP (interaction between glucokinase and glucokinase regulatory protein) (Homo sapiens, UniProt Q14397).
T2 construct: made in house; host or cells: GKRP: baculovirus system
T2 sequence (Q14397 1-625): T1 sequence (Q14397 1-625)
Put plainly: GK-GKRP Binding Assay (Binding), AlphaScreen. As to conditions: avi-tagged GKRP, GK-fluorescein, AlphaScreen beads, 1 μM sorbitol-6-phosphate; read-out: GK-GKRP IC50 (Binding). On the procedure: GK-GKRP Binding Assay Protocol (Binding)
This assay is used to directly measure the interaction between glucokinase (GK) and glucokinase regulatory protein (GKRP). Begin by preparing the following solutions. Assay Buffer: 20 mM Tris, pH 7.5/0.05% BSA/1 mM DTT/1 μM sorbitol-6-phosphate. […] Combine the following reagents in a white 96-well half area plate. Pipette 14 μl of the diluted avi-tagged GKRP into each well. Add 1 μl of compound to be tested and incubate at room temperature for 20 minutes. After 20 minutes, add 5 μl of assay buffer containing 6 nM GK-fluorescein. […] Incubate in a dark room for 2 hours at room temperature. After 2 hours read the plate using an Envision plate reader (Perkin Elmer, Waltham Mass.).
Recombinant human glucokinase (hepatic) was purified and formulated in 50 mM Tris (pH 7.5), 150 mM NaCl and 20 mM glucose previous to labeling with fluorescein. […] Unreacted dye was removed by extensive dialysis into the final formulation buffer: 25 mM Tris (pH 7.2), 150 mM NaCl, 10% glycerol and 2 mM DTT. The human glucokinase regulatory protein construct was designed with a C-terminal avitag and was expressed in a baculovirus system. Purified GKRP was incubated overnight with recombinant biotin ligase in the presence of D-biotin, ATP and MgCl2. GKRP was isolated from reaction components by chromatography on a Superdex 200 size exclusion column into: 50 mM HEPES, 150 mM NaCl and 5 mM DTT. […] Proteins were quantitated according to their calculated molar extinction coefficients at A280 and were stored at −80° C.
as §1

In general, EC50 refers to the concentration giving half of the maximal effect. A higher EC50 goes with a need for much substance. The term IC50 denotes the concentration that inhibits the measured activity by half. In the case of `O=S(=O)(NC(c1ccccc1)c1cc2cc(O)ccc2s1)c1ccc2c(c1)OCCCO2` (racemic) [Example 63, N-((5-hydroxy-1-benzothiophen-2-yl)(phenyl)methyl)-3,4-dihydro-2H-1,5-benzodioxepine-7-sulfonamide], the EC50 in assay [1] stood at 3200 nM. Besides, the IC50 in assay [2] was 4200 nM.
The corresponding values for `O=S(=O)(NC(c1cccc(O)c1)c1cc2ccccc2o1)c1ccc2c(c1)OCCCO2` (racemic) [Example 13, N-(1-benzofuran-2-yl(3-hydroxyphenyl)methyl)-3,4-dihydro-2H-1,5-benzodioxepine-7-sulfonamide] are 1800 nM and 2500 nM.
Turning to `CCc1ccccc1C(NS(=O)(=O)c1ccc2c(c1)OCCCO2)c1cc2ccccc2o1` (racemic) [Example 6, N-(1-benzofuran-2-yl(2-ethylphenyl)methyl)-3,4-dihydro-2H-1,5-benzodioxepine-7-sulfonamide], in assay [1], it took 67 nM to reach a half-maximal effect (EC50). The IC50 in assay [2] stood at 220 nM.
The compound `O=S(=O)(N[C@H](c1cc2ccccc2o1)c1ccccc1I)c1ccc2c(c1)OCCCO2` (single isomer, unassigned) [Example 21 Peak #1] registered an EC50 in assay [1] greater than 20000 nM. For the same compound, in assay [2], the IC50 was greater than 33000 nM.
The corresponding values for `CSc1ccccc1[C@@H](NS(=O)(=O)c1ccc2c(c1)OCCCO2)c1cc2ccccc2o1` (single isomer, unassigned) [Example 19 Peak #2] are 23 nM and 46 nM.
Consider `C[C@](O)(c1ccnc(-c2cccc3cc([C@@H](NS(=O)(=O)c4ccc5c(c4)OCCCO5)c4ccccc4)sc23)c1)C(F)(F)F` (racemic) [Example 70, N-(phenyl(7-(4-(2,2,2-trifluoro-1-hydroxy-1-methylethyl)-2-pyridinyl)-1-benzothiophen-2-yl)methyl)-3,4-dihydro-2H-1,5-benzodioxepine-7-sulfonamide], for which the EC50 in assay [1] came out at 26 nM. In addition, the IC50 in assay [2] was 21 nM.
For `CCCc1ccccc1C(NS(=O)(=O)c1ccc2c(c1)OCCCO2)c1cc2ccccc2o1` (racemic) [Example 11, N-(1-benzofuran-2-yl(2-propylphenyl)methyl)-3,4-dihydro-2H-1,5-benzodioxepine-7-sulfonamide], in that order: 1700 nM and 1800 nM.
The corresponding values for `O=S(=O)(NC(c1ccccc1)c1ccc2ccccc2n1)c1ccc2c(c1)OCCCO2` (racemic) [Example 56, N-(phenyl(2-quinolinyl)methyl)-3,4-dihydro-2H-1,5-benzodioxepine-7-sulfonamide] are 720 nM and 1400 nM.
For `Nc1cccc(C(NS(=O)(=O)c2ccc3c(c2)OCCCO3)c2cc3ccccc3o2)c1` (racemic) [Example 14, N-((3-aminophenyl)(1-benzofuran-2-yl)methyl)-3,4-dihydro-2H-1,5-benzodioxepine-7-sulfonamide], in that order: 1600 nM and 1200 nM.
The compound `CCc1ccccc1[C@@H](NS(=O)(=O)c1ccc2c(c1)OCCCO2)c1cc2ccccc2o1` (single isomer, unassigned) [Example 6 Peak #2] showed an EC50 in assay [1] of 40 nM. Besides, the IC50 in assay [2] was 110 nM.
For `O=S(=O)(N[C@@H](c1cc2ccccc2o1)c1ccccc1Br)c1ccc2c(c1)OCCCO2` (single isomer, unassigned) [Example 22 Peak #2], in that order: 26 nM and 83 nM.
For `O=S(=O)(NC(c1cc2ccccc2o1)c1ccccc1I)c1ccc2c(c1)OCCCO2` (racemic) [Example 21, N-(1-benzofuran-2-yl(2-iodophenyl)methyl)-3,4-dihydro-2H-1,5-benzodioxepine-7-sulfonamide], in that order: 76 nM and 228 nM.
`O=S(=O)(N[C@@H](c1ccccn1)c1cc2ccccc2o1)c1ccc2c(c1)OCCCO2` (single isomer, unassigned) [Example 25 Peak #1] had an EC50 in assay [1] of 6000 nM. Also, the IC50 in assay [2] amounted to 3800 nM.
The corresponding values for `COc1cccnc1C(NS(=O)(=O)c1ccc2c(c1)OCCCO2)c1cc2ccccc2s1` (racemic) [Example 43, N-(1-benzothiophen-2-yl(3-methoxy-2-pyridinyl)methyl)-3,4-dihydro-2H-1,5-benzodioxepine-7-sulfonamide] are 47 nM and 41 nM.
The corresponding values for `CSc1ccccc1C(NS(=O)(=O)c1ccc2c(c1)OCCCO2)c1nc2ccccc2s1` (racemic) [Example 52, N-(1,3-benzothiazol-2-yl(2-(methylsulfanyl)phenyl)methyl)-3,4-dihydro-2H-1,5-benzodioxepine-7-sulfonamide] are 29 nM and 6 nM.
For `O=S(=O)(NC(c1ccccn1)c1cc2ccccc2o1)c1ccc2c(c1)OCCCO2` (racemic) [Example 25, N-(1-benzofuran-2-yl(2-pyridinyl)methyl)-3,4-dihydro-2H-1,5-benzo dioxepine-7-sulfonamide], in that order: 270 nM and 1400 nM.
Take `CCc1ccccc1[C@H](NS(=O)(=O)c1ccc2c(c1)OCCCO2)c1cc2ccccc2s1` (single isomer, unassigned) [Example 37 Peak #1]: the EC50 in assay [1] is greater than 20000 nM. Also, in assay [2], the IC50 is 1300 nM.
In the case of `O=S(=O)(NC(c1ccccc1)c1cc2cnccc2s1)c1ccc2c(c1)OCCCO2` (racemic) [Example 62, N-(phenyl(thieno[3,2-c]pyridin-2-yl)methyl)-3,4-dihydro-2H-1,5-benzodioxepine-7-sulfonamide], in assay [1], the EC50 amounted to 4600 nM. Also, in assay [2], the IC50 amounted to 11000 nM.
The corresponding values for `C[C@](O)(c1ccnc(-c2cccc3cc([C@@H](NS(=O)(=O)c4ccc5c(c4)OCCCO5)c4ccccc4)sc23)c1)C(F)(F)F` (single isomer, unassigned) [Example 70 Peak #4] are 74 nM and 110 nM.
In assay [1], `COc1ccccc1C(NS(=O)(=O)c1ccc2c(c1)OCCCO2)c1nc2ccccc2s1` (racemic) [Example 51, N-(1,3-benzothiazol-2-yl(2-methoxyphenyl)methyl)-3,4-dihydro-2H-1,5-benzodioxepine-7-sulfonamide] returned an EC50 of 68 nM. The IC50 in assay [2] is 42 nM.
For `CC(C)c1ccccc1C(NS(=O)(=O)c1ccc2c(c1)OCCCO2)c1cc2ccccc2o1` (racemic) [Example 9, N-(1-benzofuran-2-yl(2-(1-methylethyl)phenyl)methyl)-3,4-dihydro-2H-1,5-benzodioxepine-7-sulfonamide], in that order: 280 nM and 1100 nM.
For `O=S(=O)(NC(c1ccccc1)c1cc2cccc(Cl)c2s1)c1ccc2c(c1)OCCCO2` (racemic) [Example 72, N-((7-chloro-1-benzothiophen-2-yl)(phenyl)methyl)-3,4-dihydro-2H-1,5-benzodioxepine-7-sulfonamide], in that order: 480 nM and 1000 nM.
For `COc1ccccc1[C@@H](NS(=O)(=O)c1ccc2c(c1)OCCCO2)c1nc2cccnc2s1` (single isomer, unassigned) [Example 67 Peak #2], in that order: 24 nM and 48 nM.

For the origin of these results see patent publication US20140155415A1, “BENZ[…] BENZODIOXINE COMPOUNDS THAT INTERACT WITH G[…] FOR THE TREATMENT OF DIABETES” (priority 2011, published 2014).
